Experimental data published in patent US8178538B2, “Pyridazinones” (Hoffmann-La Roche Inc., priority 2008, dated 2012).

biological target: T1, PDE10A2 (Homo sapiens, UniProt Q9Y233); assay: PDE10A2 inhibition, Scintillation Proximity Assay (SPA); format: biochemical; settings: catalytic domain of human PDE10A2 (S449-D789), 0.25 nM enzyme, 50 nM cGMP + 50 nM [3H]-cGMP, 30 minutes at room temperature
T1 construct: residues serine 449 to aspartate 789; His6 (H6) with thrombin cleavage site (N, cleaved yes); made in house; host or cells: E. coli BL21(DE3) pLysS
T1 sequence (Q9Y233 715-1055): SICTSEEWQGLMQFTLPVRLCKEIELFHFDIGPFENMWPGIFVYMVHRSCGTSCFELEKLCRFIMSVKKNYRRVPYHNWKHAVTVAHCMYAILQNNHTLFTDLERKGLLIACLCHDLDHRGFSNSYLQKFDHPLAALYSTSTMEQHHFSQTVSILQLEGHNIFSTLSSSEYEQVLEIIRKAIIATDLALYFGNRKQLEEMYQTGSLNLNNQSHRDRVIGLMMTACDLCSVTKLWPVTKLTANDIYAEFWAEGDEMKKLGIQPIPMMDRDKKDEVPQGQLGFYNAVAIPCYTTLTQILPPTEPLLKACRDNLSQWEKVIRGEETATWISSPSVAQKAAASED
Summary of the method: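 Human PDE10A2 catalytic domain (S449-D789, E. coli-expressed) at 0.25 nM hydrolysed 50 nM cGMP plus 50 nM [3H]-cGMP in 20 mM HEPES/10 mM MgCl2, pH 7.5, for 30 min at room temperature. Stopped with YSi-SPA beads in zinc sulphate; scintillation counts over a concentration range gave IC50.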

Structure (SMILES)	IC50
N#Cc1cccc(-n2nccc2-c2nn(-c3cccc(S(=O)(=O)C(F)(F)F)c3)ccc2=O)c1 [Example 284, 3-{5-[4-Oxo-1-(3-trifluoromethanesulfonyl-phenyl)-1,4-dihydro-pyridazin-3-yl]-pyrazol-1-yl}-benzonitrile]	11 nM
N#Cc1cccc(-n2ccc(=O)c(-c3ccnn3-c3cccc(Cl)c3)n2)c1 [Example 287, 3-{3-[2-(3-Chloro-phenyl)-2H-pyrazol-3-yl]-4-oxo-4H-pyridazin-1-yl}-benzonitrile]	15 nM
CC(=O)Nc1cccc(-n2ccc(=O)c(-c3ccnn3-c3ccccc3F)n2)c1 [Example 292, N-(3-{3-[2-(2-Fluoro-phenyl)-2H-pyrazol-3-yl]-4-oxo-4H-pyridazin-1-yl}-phenyl)-acetamide]	21 nM
CNC(=O)c1cccc(-n2ccc(=O)c(-c3ccnn3-c3ccccc3F)n2)c1 [Example 293, 3-{3-[2-(2-Fluoro-phenyl)-2H-pyrazol-3-yl]-4-oxo-4H-pyridazin-1-yl}-N-methyl-benzamide]	38 nM
CC(=O)N(C)c1cccc(-n2ccc(=O)c(-c3ccnn3-c3ccccc3F)n2)c1 [Example 294, N-(3-{3-[2-(2-Fluoro-phenyl)-2H-pyrazol-3-yl]-4-oxo-4H-pyridazin-1-yl}-phenyl)-N-methyl-acetamide]	6 nM
O=C(OCCF)c1cccc(-n2ccc(=O)c(-c3ccnn3-c3cccc4ccccc34)n2)c1 [Example 295, 3-[3-(2-Naphthalen-1-yl-2H-pyrazol-3-yl)-4-oxo-4H-pyridazin-1-yl]-benzoic acid 2-fluoro-ethyl ester]	2 nM
CC(O)c1cccc(-n2ccc(=O)c(-c3ccnn3-c3ccccc3F)n2)c1 (stereo not shown) [Example 298, 3-[2-(2-Fluoro-phenyl)-2H-pyrazol-3-yl]-1-[3-(1-hydroxy-ethyl)-phenyl]-1H-pyridazin-4-one]	26 nM
